Experimental data: patent US20190055590A1, “REGULARLY ARRANGED SPHEROIDS HAVING EQUAL SIZES AND USE THEREOF” (GAIA BioMedicine Inc., priority 2016, published 2019)

Experiments:
[1] = test system: CT26 GFP+ cells; conditions: 384-well plate, row with EDTA added (FIG. 1)
Procedure: 1. Proliferate CT26 GFP^+ cells to a subconfluent or confluent state, then remove the culture medium by suction, and then wash the cells with phosphate buffered saline (PBS, Invitrogen). 2. Remove PBS, then add a 0.05% trypsin solution [0.25% trypsin, 1 mmol/L EDTA•4Na (Invitrogen), diluted 5-fold with PBS], and allow the reaction under the conditions of 37° C., 5% CO2, and 95% air until cells are separated from the dish. 3. Add 10% FBS-RPMI 1640 to suspend the cells, and collect them. 4. Perform centrifugation (400 g, 3 minutes) at 4° C., and then re-suspend the precipitates (cells) in 10% FBS-RPMI 1640. 5. Mix a part of the cell suspension with 0.4% trypan blue solution (Sigma-Aldrich), and count live cells under a phase contrast microscope by using a cell counting plate (OneCell Counter, OneCell Inc.). 6. In the case of 2D culture, dilute the cell suspension with 10% FBS-0.1% DMSO-RPMI 1640 to 3.0×10^4 cells/mL, and inoculate the cells on a culture plate (ViewPlate-384, PerkinElmer) in a volume of 20 μL/well using BIOMEK (registered trademark) NXP (BECKMAN COULTER). 7. […]
1. Observe morphology of the spheroids by 2 types of methods, in a bright field and with fluorescence, by using IN Cell Analyzer 2000 (GE Healthcare) 72 Hours after the treatment with the drug. […] Evaluate the spheroids on the basis of the total fluorescence amount (density×area) obtained from GFP as an index. […]

[2] = test system: CT26 GFP+ cells; assay: Tertiary screening: inhibition of spheroid formation, 2D vs 3D culture on 96 plate, ATP assay; assay type: cell-based; conditions: 96-well U-shaped bottom plate, pre-treatment or post-treatment
Procedure: Inoculation onto 96 Plate 1. […] 2. […] 3. […] 4. […] 5. […] 6. […] 7. […] 8. […] 1. Serially dilute a compound from the highest concentration of 20 μM at a common ratio of 1/10 for 7 doses (1% DMSO) with the medium. 2. Subsequently, add 10 μL of the serially diluted compound to the cell plate after the inoculation. 3. As for addition time of the drug, add the drug immediately after the inoculation (pre-treatment), or one day after the inoculation (post-treatment). On the final day of the evaluation, add CellTiter-Glo (registered trademark) 3D cell Viability Assay in the same volume as that of the culture volume, and 15 to 30 minutes thereafter, perform pipetting. Subsequently, transfer 120 μL of the cell lysate to Black Plate as required, and measure luminescence with a luminometer (Enspire etc.).

[3] = test system: peritoneal dissemination (CT26 GFP+ cells); assay: In vivo test: peritoneal dissemination after intraperitoneal transfer of CT26 GFP+ cells; set-up: species or system male BALB/c mice; conditions: mice, comparison with the vehicle group on the final day (Tukey-Kramer HSD test)
Description: 1. Use male BALB/c mice (henceforth referred to as mouse or mice, 6 to 8 weeks old at the time of use). 2. Put the mice in a plastic cage (W 136 mm×L 208 mm×H 115 mm) of which bottom is covered with a sterilized floor covering (Paper Clean, Japan SLC, Inc.) in a number of mice not larger than 5 mice per one cage until they are used for the experiments. 3. Allow the mice to ingest solid feed CRF-1 (Oriental Yeast Co., Ltd.) and tap water of water bottle ad libitum during the breeding period. 4. Perform individual identification of the mice by ear punching at the time of arrival of the mice (identification number starts from 01). 1. […] 2. […] 3. […] 4. […] 5. Inject 0.2 mL of the cell suspension into the abdominal cavity of each mouse (2.0×10^6 cells/body) by using a syringe with 26 G hypodermic needle (TERUMO CORP.). […] Spread the extracted alimentary canal on a 100-mm dish, and obtain images of the total alimentary canal in a bright field and with fluorescence by using BZ9000. […] On the last day of the evaluation, sacrifice the mice by cervical dislocation, open up the abdomen by midline incision, and collect the ascites reserved in the abdominal cavity with absorbent cotton of which weight is measured beforehand. […]

O=C(O)CN(CCN(CC(=O)O)CC(=O)O)CC(=O)O [EDTA]
spheroid formation [1]: no spheroid formation

O=C(NOC[C@H](O)CO)c1ccc(F)c(F)c1Nc1ccc(I)cc1F [PD0325901]
ability to inhibit spheroid formation [2]: high ability to inhibit spheroid formation | effect on peritoneal dissemination (fluorescence amount emitted from the alimentary canal extracted on the last evaluation day) ([3]; FIG. 6): confirmed in vivo | effect on peritoneal dissemination (weight of the ascites collected on the last evaluation day) ([3]; FIG. 7): confirmed in vivo
